Measured values published in patent publication US7659273B2, “Composition for accelerating bone fracture healing” (Mitsubishi Tanabe Pharma Corporation, priority 2001, dated 2010).

How the values were obtained:
[1] = tested on: cultured rabbit costicartilage cells; assay: Calcification of chondrocyte (Experimental Example 5); format: cell-based; conditions: 10^−4 M; 4 week cultivation; silver nitrate and Alizarin Red staining; FIG. 1
Excerpt: Costicartilages were isolated from NZ line rabbit (Kitayama Labes., Co Ltd.; male; 4-week-old) and soaked into Hank's balanced salt solution (calcium- and magnesium-free; LifeTech Co., Ltd.; hereinafter, referred to as “HBSS”). One costicartilage and one costa were excised together, the adipose tissue and the muscle tissue were removed and then, the proliferating chondrocyte layer of costicartilage was excised. The collected proliferating chondrocyte layer was cut into sections with a surgical knife (FEATHER Safety Razor Co., Ltd.) and the all proliferating chondrocyte layer sections from 4 rabbits were combined in a centrifuge tube. To the centrifuge tube was added 40 ml of HBSS (pH 7.2) supplied with 0.1% tetrasodium ethylenediamine tetraacetate to obtain suspension of the proliferating chondrocyte layer sections, which was shaken at 37° C. for 20 minutes and centrifuged (1500 rpm, 10 minutes). The supernatant was aspirated off, and 40 ml of HBSS (pH 7.2) supplied with 0.2% trypsin was added to the tube to suspend the precipitates and shaken at 37° C. for 1 hour. The tube was centrifuged (1500 rpm, 10 minutes), and the supernatant was aspirated off. […] The precipitates were suspended in the same medium to give an about 5 ml suspension, and the cell number was counted. […]

[2] = tested on: rabbit costicartilage cells; assay: Cartilage matrix (proteoglycan) production, Alcian blue staining (Experimental Examples 3 and 4); format: cell-based; conditions: summary of Tables 10 and 11
Excerpt: Costicartilages were isolated from NZ line rabbit (Kitayama Labes., Co Ltd.; male; 4-week-old) and soaked into Hank's balanced salt solution (calcium- and magnesium-free; LifeTech Co., Ltd.; hereinafter, referred to as “HBSS”). One costicartilage and one costa were excised together, the adipose tissue and the muscle tissue were removed and then, the proliferating chondrocyte layer of costicartilage was excised. The collected proliferating chondrocyte layer was cut into sections with a surgical knife (FEATHER Safety Razor Co., Ltd.) and the all proliferating chondrocyte layer sections from 4 rabbits were combined in a centrifuge tube. To the centrifuge tube was added 40 ml of HBSS (pH 7.2) supplied with 0.1% tetrasodium ethylenediamine tetraacetate to obtain suspension of the proliferating chondrocyte layer sections, which was shaken at 37° C. for 20 minutes and centrifuged (1500 rpm, 10 minutes). The supernatant was aspirated off, and 40 ml of HBSS (pH 7.2) supplied with 0.2% trypsin was added to the tube to suspend the precipitates and shaken at 37° C. for 1 hour. The tube was centrifuged (1500 rpm, 10 minutes), and the supernatant was aspirated off. The precipitates were washed twice with HBSS, suspended in 100 ml of HBSS supplied with 0.1% collagenase (Wako Pure Chemical Industries, Ltd., 034-10533) and shaken at 37° C. for 3 hours. The content of the tube was passed through the Cell Strainer (pore size 40 μm) and the filtrate was divided into four centrifuge tubes. To each of all four tubes was added 40 ml of medium (α-MEM, LifeTech Co., Ltd.), and the tubes were centrifuged (1500 rpm, 10 minutes). The supernatant was aspirated off, and the resultant precipitates were collected in one tube with Pipetman. After addition of 40 ml of the same medium, the tube was re-centrifuged (1500 rpm, 10 minutes). Washing procedure comprising addition of medium followed by centrifugation was repeated additional three times. The precipitates were suspended in the same medium to give an about 5 ml suspension, and the cell number was counted.
The suspension of costicartilage cell described above was added to 24-well plate at 50,000 cells per well (day 1). […]
After removing the medium, cells in each well were fixed by addition of 1 ml of neutral buffer containing 4% paraformaldehyde and incubation for 30 minutes at room temperature. […] Absorbance at 620 nm was measured, and cartilage matrix amount (proteoglycan production amount) in each well was estimated, and proteoglycan production rate (%) of each test compound for vehicle (100%) was calculated.
The cartilage matrix (proteoglycan) production was determined using other compounds (compounds (52)-(55) and Compound (2) for comparison) in exactly the same manner as Experimental Example 3 above.

[3] = tested on: fibula fracture region; assay: Acceleration of fracture healing in normal rat, Compound (1) microspheres (Experimental Example 1); format: in vivo; conditions: normal rats, Example 2-(1) microspheres, 6 weeks after suturing; for Fibula Bone Mineral Density: at cutting site; for Fibula Bone Mineral Density / Fibula Bone Mineral Content: DXA at fracture region; for Breaking Energy / Breaking force: three-point bending test
Description: CD (SD) IGS rats (Charles River Japan, Inc.; male; 7-week-old) were housed for seven days at room temperature (23±2° C.) and 40-70% humidity. During the housing period, the rats were free to access commercially available food (from Oriental Bio; CE-2).
Under ether anesthesia, the left-lower legs of rats were shaved and sterilized with 70% aqueous ethanol, fibulas were exposed with scissors and cut with nail scissors (Natsume Seisakusyo; B17). The cut sections of the fibula were re-matched with tweezers. For the test groups (20 rats/group), the drug-containing microspheres prepared in Example 2-(1), which contains 0.1 or 0.5 mg of Compound (1), were placed around the cutting site of each rat using spatula followed by suturing with silk thread. For the control group (20 rats/group), the same amount of drug-free microspheres prepared in Control Example 1-(1) were placed around the cutting site using spatula followed by suturing with silk thread. Following the suturing, animals of every group were sterilized with 70% aqueous ethanol. At six weeks after the suturing, under ether anesthesia, 10 rats from each group were sacrificed by laparotomy with bleeding and the fibulas were excised.
The fibula excised at 6 weeks after suturing was subjected to DXA bone densitometer (Aloka; DCS-600) to determine bone mineral density and bone mineral content at fracture region (scanning width: 1 mm).
The volume of fibula excised 6 weeks after suturing was determined using Plethysmometer (Muromachi Kikai Co., Ltd.; TK-101).
The fibula excised at 6 weeks after suturing was subjected to a three-point bending test with bone strength tester (from Muromachi Kikai Co., Ltd.; TK-252C) to determine bone strength. Briefly, the fibula was supported by two supports apart from each other by 8 mm and the cut section was positioned at the middle of these supports, i.e., 4 mm apart from the respective two supports. Loading (3 mm/minute) from upper direction was kept on the middle point (fracture section) of fibula until fibula begins to fracture. The maximum pressure necessary to break the bone was defined as the breaking force and the total energy spent to break the bone was defined as the breaking energy.

[4] = tested on: backbone, femur and cortical bone of mouse; conditions: daily subcutaneous injection; cited from earlier work

With `CCOc1cc2cc(CO)c(CO)c(-c3ccn(CCOC)c(=O)c3)c2cc1OCC` [Compound (1)] the “calcium deposition / calcification enhancement” value [1] was “calcium deposition was clearly observed”, the “cartilage matrix (proteoglycan) production promoting effect (in words)” value (“cartilage matrix” below) [2] was “remarkable matrix production promoting effect” and the “Fibula Bone Mineral Density” value ([3]; drug content 0.1 mg) was 36.77 ± 1.52 mg/cm^2. The “Fibula Bone Volume” value ([3]; drug content 0.1 mg) was 68.1 ± 2.9 µL, the “Fibula Bone Mineral Content” value ([3]; drug content 0.1 mg) was 14.27 ± 0.76 mg and the “Breaking Energy” value ([3]; drug content 0.1 mg) was 4.37 ± 0.71 mJ. The Breaking force ([3]; drug content 0.1 mg) was 19.8 ± 2.14 N, the “Fibula Bone Mineral Density” value ([3]; drug content 0.5 mg) was 40.05 ± 1.34 mg/cm^2 and the “Fibula Bone Volume” value ([3]; drug content 0.5 mg) was 77.2 ± 2.9 µL. The “Fibula Bone Mineral Content” value ([3]; drug content 0.5 mg) was 15.20 ± 0.82 mg, the “Breaking Energy” value ([3]; drug content 0.5 mg) was 6.44 ± 1.06 mJ and the Breaking force ([3]; drug content 0.5 mg) was 23.0 ± 1.68 N.

For `COc1cc2c(cc1OC)C(c1ccnc(-n3ccc4c(OCCN5CCOCC5)cccc4c3=O)c1)=N[C@H](CO)C2` [Compound (52)], the “cartilage matrix” value [2] was “remarkable matrix production promoting effect”.

For `COc1cc2cc(CO)nc(-c3ccnc(-n4nc(-c5nccs5)c5ccccc5c4=O)c3)c2cc1OC` [Compound (53)], the “cartilage matrix” value [2] was “remarkable matrix production promoting effect”.

In the case of `CC(=O)CCCCn1c(=O)c2c(ncn2C)n(C)c1=O` [Pentoxifylline], the “bone mineral density of the backbone and the femur” value [4] is given as “increase of bone mineral density of the backbone and the femur” and the “hyperplasia of cortical bone” value [4] is given as “hyperplasia of cortical bone”.

For `COc1ccc(C2CNC(=O)C2)cc1OC1CCCC1` (stereo not drawn) [Rolipram], the “bone mineral density of the backbone and the femur” value [4] is listed as “increase of bone mineral density of the backbone and the femur” and the “hyperplasia of cortical bone” value [4] is listed as “hyperplasia of cortical bone”.
